Laboratory results: US12415816B2, “Benzothiazole derivatives and 7-aza-benzothiazole derivatives as janus kinase 2 inhibitors and uses thereof” (Dana-Farber Cancer Institute, Inc., priority 2018, dated 2025)

Columns and labels:
[1] = target: JAK2 (Homo sapiens (Human), UniProt O60674); assay: JAK2 Z-Lyte biochemical assay; conditions: commercial JAK2 Z-Lyte assay from Invitrogen
Procedure: The JAK2 Z-Lyte biochemical assay was performed according to manufacturer's instructions (Life Technologies).

[2] = test system: JAK2/STAT5; assay: Western blots of JAK2/STAT5 inhibition in cells; assay type: cell-based; conditions: cells treated with indicated concentrations for 4 hours; immunoblotting pJAK2, pSTAT5, c-Myc
Procedure: (§1) FIG. 1. […] Cells were treated with the indicated concentrations of JAK2 inhibitor for 4 hours. Cell pellets were lysed with Cell Lysis Buffer (Cell Signaling Technology) and then immunoblotting was performed with pJAK2 (#3771), pSTAT5 (#4322), c-Myc (#9402), JAK2 (#3230), STAT5 (#9363 or 94205), and β-actin (#4967 or 12620) antibodies from Cell Signaling Technology.
as §1, with “2.” for “1.”

[3] = target: KIT(V559D) (Homo sapiens (Human), UniProt P10721, V559D); assay: KINOMEscan kinase selectivity profiling; assay type: binding; conditions: read-out: Ambit KINOMEscan of compound I-5 at 10 μM (percent control %)
[4] = target: BRAF(V600E) (Homo sapiens (Human), UniProt P15056, V600E); assay: KINOMEscan kinase selectivity profiling; assay type: binding; conditions: read-out: Ambit KINOMEscan of compound I-5 at 10 μM (percent control %)
[5] = target: KIT (Homo sapiens (Human), UniProt P10721); assay: KINOMEscan kinase selectivity profiling; assay type: binding; conditions: read-out: Ambit KINOMEscan of compound I-5 at 10 μM (percent control %)
[6] = target: p38-delta (Homo sapiens (Human), UniProt O15264); assay: KINOMEscan kinase selectivity profiling; assay type: binding; conditions: read-out: Ambit KINOMEscan of compound I-5 at 10 μM (percent control %)
[7] = target: INSRR (Homo sapiens (Human), UniProt P14616); assay: KINOMEscan kinase selectivity profiling; assay type: binding; conditions: read-out: Ambit KINOMEscan of compound I-5 at 10 μM (percent control %)
[8] = target: FLT4 (Homo sapiens (Human), UniProt P35916); assay: KINOMEscan kinase selectivity profiling; assay type: binding; conditions: read-out: Ambit KINOMEscan of compound I-5 at 10 μM (percent control %)
[9] = target: EPHB2 (Homo sapiens (Human), UniProt P29323); assay: KINOMEscan kinase selectivity profiling; assay type: binding; conditions: read-out: Ambit KINOMEscan of compound I-5 at 10 μM (percent control %)
[10] = target: CIT (Homo sapiens (Human), UniProt O14578); assay: KINOMEscan kinase selectivity profiling; assay type: binding; conditions: read-out: Ambit KINOMEscan of compound I-5 at 10 μM (percent control %)
[11] = target: EPHA4 (Homo sapiens (Human), UniProt P54764); assay: KINOMEscan kinase selectivity profiling; assay type: binding; conditions: read-out: Ambit KINOMEscan of compound I-5 at 10 μM (percent control %)
[12] = target: RET(V804L) (Homo sapiens (Human), UniProt P07949, V804L); assay: KINOMEscan kinase selectivity profiling; assay type: binding; conditions: read-out: Ambit KINOMEscan of compound I-5 at 10 μM (percent control %)
[13] = target: FGR (Homo sapiens (Human), UniProt P09769); assay: KINOMEscan kinase selectivity profiling; assay type: binding; conditions: read-out: Ambit KINOMEscan of compound I-5 at 10 μM (percent control %)
[14] = target: MAP4K2 (Homo sapiens (Human), UniProt Q12851); assay: KINOMEscan kinase selectivity profiling; assay type: binding; conditions: read-out: Ambit KINOMEscan of compound I-5 at 10 μM (percent control %)
[15] = target: EPHB4 (Homo sapiens (Human), UniProt P54760); assay: KINOMEscan kinase selectivity profiling; assay type: binding; conditions: read-out: Ambit KINOMEscan of compound I-5 at 10 μM (percent control %)
[16] = target: PDGFRA (Homo sapiens (Human), UniProt P16234); assay: KINOMEscan kinase selectivity profiling; assay type: binding; conditions: read-out: Ambit KINOMEscan of compound I-5 at 10 μM (percent control %)
[17] = target: LYN (Homo sapiens (Human), UniProt P07948); assay: KINOMEscan kinase selectivity profiling; assay type: binding; conditions: read-out: Ambit KINOMEscan of compound I-5 at 10 μM (percent control %)
[18] = target: ABL1(Q252H) (Homo sapiens (Human), UniProt P00519, Q252H); assay: KINOMEscan kinase selectivity profiling; assay type: binding; conditions: read-out: Ambit KINOMEscan of compound I-5 at 10 μM (percent control %)
[19] = target: MERTK (Homo sapiens (Human), UniProt Q12866); assay: KINOMEscan kinase selectivity profiling; assay type: binding; conditions: read-out: Ambit KINOMEscan of compound I-5 at 10 μM (percent control %)
[20] = target: ABL2 (Homo sapiens (Human), UniProt P42684); assay: KINOMEscan kinase selectivity profiling; assay type: binding; conditions: read-out: Ambit KINOMEscan of compound I-5 at 10 μM (percent control %)
[21] = target: TIE1 (Homo sapiens (Human), UniProt P35590); assay: KINOMEscan kinase selectivity profiling; assay type: binding; conditions: read-out: Ambit KINOMEscan of compound I-5 at 10 μM (percent control %)
[22] = target: EPHA6 (Homo sapiens (Human), UniProt Q9UF33); assay: KINOMEscan kinase selectivity profiling; assay type: binding; conditions: read-out: Ambit KINOMEscan of compound I-5 at 10 μM (percent control %)
[23] = target: CSF1R (Homo sapiens (Human), UniProt P07333); assay: KINOMEscan kinase selectivity profiling; assay type: binding; conditions: read-out: Ambit KINOMEscan of compound I-5 at 10 μM (percent control %)
[24] = target: PFTAIRE2 (Homo sapiens (Human), UniProt Q96Q40); assay: KINOMEscan kinase selectivity profiling; assay type: binding; conditions: read-out: Ambit KINOMEscan of compound I-5 at 10 μM (percent control %)
[25] = target: RIPK1 (Homo sapiens (Human), UniProt Q13546); assay: KINOMEscan kinase selectivity profiling; assay type: binding; conditions: read-out: Ambit KINOMEscan of compound I-5 at 10 μM (percent control %)
[26] = target: ABL1(T315I) (Homo sapiens (Human), UniProt P00519, T315I); assay: KINOMEscan kinase selectivity profiling; assay type: binding; conditions: read-out: Ambit KINOMEscan of compound I-5 at 10 μM (percent control %)
[27] = target: EPHA8 (Homo sapiens (Human), UniProt P29322); assay: KINOMEscan kinase selectivity profiling; assay type: binding; conditions: read-out: Ambit KINOMEscan of compound I-5 at 10 μM (percent control %)
[28] = target: FES (Homo sapiens (Human), UniProt P07332); assay: KINOMEscan kinase selectivity profiling; assay type: binding; conditions: read-out: Ambit KINOMEscan of compound I-5 at 10 μM (percent control %)
[29] = target: RET(M918T) (Homo sapiens (Human), UniProt P07949, M918T); assay: KINOMEscan kinase selectivity profiling; assay type: binding; conditions: read-out: Ambit KINOMEscan of compound I-5 at 10 μM (percent control %)
[30] = target: TRKB (Homo sapiens (Human), UniProt Q16620); assay: KINOMEscan kinase selectivity profiling; assay type: binding; conditions: read-out: Ambit KINOMEscan of compound I-5 at 10 μM (percent control %)
[31] = target: TIE2 (Homo sapiens (Human), UniProt Q02763); assay: KINOMEscan kinase selectivity profiling; assay type: binding; conditions: read-out: Ambit KINOMEscan of compound I-5 at 10 μM (percent control %)
[32] = target: PFTK1 (Homo sapiens (Human), UniProt O94921); assay: KINOMEscan kinase selectivity profiling; assay type: binding; conditions: read-out: Ambit KINOMEscan of compound I-5 at 10 μM (percent control %)
[33] = target: ITK (Homo sapiens (Human), UniProt Q08881); assay: KINOMEscan kinase selectivity profiling; assay type: binding; conditions: read-out: Ambit KINOMEscan of compound I-5 at 10 μM (percent control %)
[34] = target: SRC (Homo sapiens (Human), UniProt P12931); assay: KINOMEscan kinase selectivity profiling; assay type: binding; conditions: read-out: Ambit KINOMEscan of compound I-5 at 10 μM (percent control %)
[35] = target: TRKC (Homo sapiens (Human), UniProt Q16288); assay: KINOMEscan kinase selectivity profiling; assay type: binding; conditions: read-out: Ambit KINOMEscan of compound I-5 at 10 μM (percent control %)
[36] = target: PDGFRB (Homo sapiens (Human), UniProt P09619); assay: KINOMEscan kinase selectivity profiling; assay type: binding; conditions: read-out: Ambit KINOMEscan of compound I-5 at 10 μM (percent control %)
[37] = target: RAF1 (Homo sapiens (Human), UniProt P04049); assay: KINOMEscan kinase selectivity profiling; assay type: binding; conditions: read-out: Ambit KINOMEscan of compound I-5 at 10 μM (percent control %)
[38] = target: TAOK3 (Homo sapiens (Human), UniProt Q9H2K8); assay: KINOMEscan kinase selectivity profiling; assay type: binding; conditions: read-out: Ambit KINOMEscan of compound I-5 at 10 μM (percent control %)
[39] = target: CDC2L2 (Homo sapiens (Human), UniProt Q9UQ88); assay: KINOMEscan kinase selectivity profiling; assay type: binding; conditions: read-out: Ambit KINOMEscan of compound I-5 at 10 μM (percent control %)
[40] = target: RET(V804M) (Homo sapiens (Human), UniProt P07949, V804M); assay: KINOMEscan kinase selectivity profiling; assay type: binding; conditions: read-out: Ambit KINOMEscan of compound I-5 at 10 μM (percent control %)
[41] = target: KIT(L576P) (Homo sapiens (Human), UniProt P10721, L576P); assay: KINOMEscan kinase selectivity profiling; assay type: binding; conditions: read-out: Ambit KINOMEscan of compound I-5 at 10 μM (percent control %)
[42] = target: EPHB1 (Homo sapiens (Human), UniProt P54762); assay: KINOMEscan kinase selectivity profiling; assay type: binding; conditions: read-out: Ambit KINOMEscan of compound I-5 at 10 μM (percent control %)
[43] = target: RET (Homo sapiens (Human), UniProt P07949); assay: KINOMEscan kinase selectivity profiling; assay type: binding; conditions: read-out: Ambit KINOMEscan of compound I-5 at 10 μM (percent control %)
[44] = target: TAK1 (Homo sapiens (Human), UniProt O43318); assay: KINOMEscan kinase selectivity profiling; assay type: binding; conditions: read-out: Ambit KINOMEscan of compound I-5 at 10 μM (percent control %)
[45] = target: HPK1 (Homo sapiens (Human), UniProt Q92918); assay: KINOMEscan kinase selectivity profiling; assay type: binding; conditions: read-out: Ambit KINOMEscan of compound I-5 at 10 μM (percent control %)
[46] = target: CDKL3 (Homo sapiens (Human), UniProt Q8IVW4); assay: KINOMEscan kinase selectivity profiling; assay type: binding; conditions: read-out: Ambit KINOMEscan of compound I-5 at 10 μM (percent control %)
[47] = test system: cell lines or patient-derived xenografts from patients with CRLF2-rearranged B-ALL; conditions: cited from earlier work

Chain of JAK2 (O60674 whole entry): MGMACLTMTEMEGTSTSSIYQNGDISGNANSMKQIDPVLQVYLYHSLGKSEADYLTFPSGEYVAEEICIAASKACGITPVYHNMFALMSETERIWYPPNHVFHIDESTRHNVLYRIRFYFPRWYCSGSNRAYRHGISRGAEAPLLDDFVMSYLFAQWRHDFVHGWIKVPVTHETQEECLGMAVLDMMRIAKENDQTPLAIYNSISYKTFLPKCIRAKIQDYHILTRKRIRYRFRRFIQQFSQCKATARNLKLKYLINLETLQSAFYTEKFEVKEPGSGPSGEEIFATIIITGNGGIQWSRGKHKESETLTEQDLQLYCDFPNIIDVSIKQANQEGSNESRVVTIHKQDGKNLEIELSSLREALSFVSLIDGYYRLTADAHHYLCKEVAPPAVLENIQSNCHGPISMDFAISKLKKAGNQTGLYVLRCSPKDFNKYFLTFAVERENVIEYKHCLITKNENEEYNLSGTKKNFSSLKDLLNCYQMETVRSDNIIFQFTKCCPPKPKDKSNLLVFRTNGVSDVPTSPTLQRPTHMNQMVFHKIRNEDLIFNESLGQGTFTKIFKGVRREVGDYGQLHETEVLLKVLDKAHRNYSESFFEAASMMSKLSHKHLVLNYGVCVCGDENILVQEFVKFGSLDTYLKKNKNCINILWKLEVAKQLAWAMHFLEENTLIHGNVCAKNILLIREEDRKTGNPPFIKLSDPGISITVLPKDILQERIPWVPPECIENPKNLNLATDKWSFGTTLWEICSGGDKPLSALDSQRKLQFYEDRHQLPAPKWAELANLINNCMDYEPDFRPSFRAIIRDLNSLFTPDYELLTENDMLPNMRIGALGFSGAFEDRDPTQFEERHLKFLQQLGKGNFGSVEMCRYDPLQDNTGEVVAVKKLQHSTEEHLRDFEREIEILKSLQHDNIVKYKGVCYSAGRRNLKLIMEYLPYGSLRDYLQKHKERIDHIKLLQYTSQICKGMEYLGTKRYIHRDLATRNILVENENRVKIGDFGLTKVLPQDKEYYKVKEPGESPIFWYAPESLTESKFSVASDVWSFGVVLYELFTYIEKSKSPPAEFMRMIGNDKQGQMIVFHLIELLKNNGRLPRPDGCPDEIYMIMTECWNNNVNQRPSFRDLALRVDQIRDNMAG
Chain of TIE1 (P35590 22-1138): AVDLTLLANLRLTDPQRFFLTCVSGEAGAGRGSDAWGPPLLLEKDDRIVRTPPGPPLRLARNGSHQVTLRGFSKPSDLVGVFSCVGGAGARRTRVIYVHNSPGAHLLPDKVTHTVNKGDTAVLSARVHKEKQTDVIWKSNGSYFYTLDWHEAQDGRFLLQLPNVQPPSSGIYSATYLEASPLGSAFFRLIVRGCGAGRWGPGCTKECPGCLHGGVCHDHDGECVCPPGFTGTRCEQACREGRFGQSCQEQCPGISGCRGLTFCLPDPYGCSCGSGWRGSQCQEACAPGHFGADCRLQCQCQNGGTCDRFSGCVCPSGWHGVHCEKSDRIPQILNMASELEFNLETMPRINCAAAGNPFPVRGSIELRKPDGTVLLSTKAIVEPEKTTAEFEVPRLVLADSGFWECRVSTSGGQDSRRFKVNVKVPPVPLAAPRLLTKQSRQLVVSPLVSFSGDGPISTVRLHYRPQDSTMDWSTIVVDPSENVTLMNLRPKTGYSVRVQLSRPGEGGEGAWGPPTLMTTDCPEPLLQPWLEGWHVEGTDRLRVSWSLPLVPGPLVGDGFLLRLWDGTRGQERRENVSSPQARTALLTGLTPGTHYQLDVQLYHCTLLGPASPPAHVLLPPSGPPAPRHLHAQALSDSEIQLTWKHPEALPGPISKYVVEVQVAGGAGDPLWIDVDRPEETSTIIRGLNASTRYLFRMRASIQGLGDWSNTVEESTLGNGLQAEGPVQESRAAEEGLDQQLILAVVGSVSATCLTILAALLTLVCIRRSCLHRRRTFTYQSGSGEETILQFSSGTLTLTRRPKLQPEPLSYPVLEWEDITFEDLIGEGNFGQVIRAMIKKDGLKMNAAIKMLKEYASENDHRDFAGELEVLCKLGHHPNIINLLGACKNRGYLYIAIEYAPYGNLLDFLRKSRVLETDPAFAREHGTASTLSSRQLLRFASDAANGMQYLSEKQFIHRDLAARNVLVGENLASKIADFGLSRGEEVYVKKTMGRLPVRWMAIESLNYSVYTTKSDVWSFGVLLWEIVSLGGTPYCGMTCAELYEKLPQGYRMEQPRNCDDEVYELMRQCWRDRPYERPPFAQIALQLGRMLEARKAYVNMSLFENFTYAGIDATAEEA
Chain of RET(V804L) (P07949 29-1114 V804L): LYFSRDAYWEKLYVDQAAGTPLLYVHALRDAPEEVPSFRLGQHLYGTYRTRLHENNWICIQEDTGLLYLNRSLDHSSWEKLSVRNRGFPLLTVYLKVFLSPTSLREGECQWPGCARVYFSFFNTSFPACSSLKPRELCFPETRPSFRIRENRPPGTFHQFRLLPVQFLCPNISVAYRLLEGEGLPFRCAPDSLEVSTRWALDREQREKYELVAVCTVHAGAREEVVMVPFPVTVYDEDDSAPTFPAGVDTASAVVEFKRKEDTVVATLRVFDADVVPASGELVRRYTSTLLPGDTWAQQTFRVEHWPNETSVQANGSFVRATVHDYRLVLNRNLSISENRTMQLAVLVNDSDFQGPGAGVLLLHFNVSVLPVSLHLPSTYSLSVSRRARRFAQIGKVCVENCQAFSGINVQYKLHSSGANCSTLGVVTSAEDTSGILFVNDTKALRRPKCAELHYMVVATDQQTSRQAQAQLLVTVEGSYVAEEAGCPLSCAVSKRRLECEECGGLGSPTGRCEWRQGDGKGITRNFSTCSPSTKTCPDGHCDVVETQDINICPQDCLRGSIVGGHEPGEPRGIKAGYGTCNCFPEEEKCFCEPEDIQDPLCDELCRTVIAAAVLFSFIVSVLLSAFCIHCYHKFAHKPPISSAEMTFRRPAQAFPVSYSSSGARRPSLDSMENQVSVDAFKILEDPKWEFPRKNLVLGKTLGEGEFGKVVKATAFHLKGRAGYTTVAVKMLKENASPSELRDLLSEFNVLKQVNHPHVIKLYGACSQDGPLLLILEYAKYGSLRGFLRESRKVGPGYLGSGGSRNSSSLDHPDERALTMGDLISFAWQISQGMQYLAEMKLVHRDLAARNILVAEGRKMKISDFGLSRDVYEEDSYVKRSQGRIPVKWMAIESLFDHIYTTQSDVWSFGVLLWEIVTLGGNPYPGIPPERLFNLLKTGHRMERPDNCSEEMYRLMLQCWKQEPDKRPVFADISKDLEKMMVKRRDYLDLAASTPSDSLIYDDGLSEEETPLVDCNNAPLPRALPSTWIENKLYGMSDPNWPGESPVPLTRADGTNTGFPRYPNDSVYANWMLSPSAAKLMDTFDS
Chain of RET(V804M) (P07949 29-1114 V804M): as the sequence (P07949 29-1114 V804L) above, with L776M counted along it
Chain of CSF1R (P07333 20-972): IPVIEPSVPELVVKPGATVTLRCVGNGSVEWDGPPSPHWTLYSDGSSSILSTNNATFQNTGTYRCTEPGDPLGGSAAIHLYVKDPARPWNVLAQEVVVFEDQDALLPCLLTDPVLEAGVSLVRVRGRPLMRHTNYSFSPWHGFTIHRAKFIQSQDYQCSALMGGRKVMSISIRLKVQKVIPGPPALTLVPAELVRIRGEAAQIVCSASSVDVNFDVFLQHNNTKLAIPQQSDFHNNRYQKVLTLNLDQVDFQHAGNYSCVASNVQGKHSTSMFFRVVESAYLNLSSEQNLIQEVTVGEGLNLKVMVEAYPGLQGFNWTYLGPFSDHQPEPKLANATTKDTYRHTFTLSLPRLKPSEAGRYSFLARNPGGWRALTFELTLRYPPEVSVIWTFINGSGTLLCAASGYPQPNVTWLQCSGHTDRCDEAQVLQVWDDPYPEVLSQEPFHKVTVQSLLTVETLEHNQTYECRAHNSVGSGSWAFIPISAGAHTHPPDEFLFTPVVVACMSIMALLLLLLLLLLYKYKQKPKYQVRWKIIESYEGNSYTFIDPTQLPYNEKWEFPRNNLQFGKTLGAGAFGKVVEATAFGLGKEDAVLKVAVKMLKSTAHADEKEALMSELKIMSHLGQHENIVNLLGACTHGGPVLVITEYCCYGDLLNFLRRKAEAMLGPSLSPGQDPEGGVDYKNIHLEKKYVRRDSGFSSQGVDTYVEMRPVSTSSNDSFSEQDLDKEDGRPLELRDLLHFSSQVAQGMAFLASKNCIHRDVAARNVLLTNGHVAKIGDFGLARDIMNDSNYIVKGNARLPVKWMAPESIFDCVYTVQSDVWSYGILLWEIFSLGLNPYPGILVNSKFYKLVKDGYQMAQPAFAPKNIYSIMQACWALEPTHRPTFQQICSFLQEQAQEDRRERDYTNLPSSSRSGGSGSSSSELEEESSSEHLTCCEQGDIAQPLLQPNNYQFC
Chain of BRAF(V600E) (P15056 whole entry V600E): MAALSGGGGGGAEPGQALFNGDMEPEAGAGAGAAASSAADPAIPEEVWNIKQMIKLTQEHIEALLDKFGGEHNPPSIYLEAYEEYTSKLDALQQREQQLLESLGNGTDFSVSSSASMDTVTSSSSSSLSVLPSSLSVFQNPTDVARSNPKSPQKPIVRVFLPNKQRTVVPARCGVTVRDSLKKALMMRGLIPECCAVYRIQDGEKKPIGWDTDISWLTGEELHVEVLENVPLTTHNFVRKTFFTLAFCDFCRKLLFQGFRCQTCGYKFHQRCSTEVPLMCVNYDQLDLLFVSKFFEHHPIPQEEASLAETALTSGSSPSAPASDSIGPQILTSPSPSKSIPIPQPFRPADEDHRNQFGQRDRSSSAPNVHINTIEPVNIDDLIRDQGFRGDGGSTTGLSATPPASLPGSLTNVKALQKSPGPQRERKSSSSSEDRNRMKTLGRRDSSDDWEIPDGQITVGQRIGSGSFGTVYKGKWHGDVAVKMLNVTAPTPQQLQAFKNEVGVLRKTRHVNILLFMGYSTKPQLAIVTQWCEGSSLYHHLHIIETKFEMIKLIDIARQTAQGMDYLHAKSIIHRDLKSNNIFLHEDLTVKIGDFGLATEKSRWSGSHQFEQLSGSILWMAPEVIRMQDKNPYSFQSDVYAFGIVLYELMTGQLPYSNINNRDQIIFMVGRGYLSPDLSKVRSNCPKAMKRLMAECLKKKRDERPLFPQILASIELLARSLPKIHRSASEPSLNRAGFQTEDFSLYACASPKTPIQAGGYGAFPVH

With CCN1CCN(Cc2cc(C(=O)Nc3ccc(C)c(-c4ccc5nc(NC(=O)C6CC6)sc5n4)c3)cc(C(F)(F)F)c2)CC1 [Compound I-8, N-(3-(2-(cyclopropanecarboxamido)thiazolo[5,4-b]pyridin-5-yl)-4-methylphenyl)-3-((4-ethylpiperazin-1-yl)methyl)-5-(trifluoromethyl)benzamide] the IC50 [1] was 639 nM and the “JAK2/STAT5 inhibition (Western blots)” value [2] was “JAK2/STAT5 inhibition”.
CCN1CCN(Cc2cc(NC(=O)c3ccc(C)c(-c4ccc5nc(NC(=O)C6CC6)sc5n4)c3)cc(C(F)(F)F)c2)CC1 [Compound I-5] gave a remaining binding at 10 µM [3] of 0%, a remaining binding at 10 µM [4] of 0% and a remaining binding at 10 µM [5] of 0%. The remaining binding at 10 µM [6] was 0%, the remaining binding at 10 µM [7] was 0% and the remaining binding at 10 µM [8] was 0%. For the same compound, the remaining binding at 10 µM [9] was 0%, the remaining binding at 10 µM [10] was 0% and the remaining binding at 10 µM [11] was 0%. It also gave a remaining binding at 10 µM [12] of 0%, a remaining binding at 10 µM [13] of 0% and a remaining binding at 10 µM [14] of 0%. For the same compound, the remaining binding at 10 µM [15] was 0%, the remaining binding at 10 µM [16] was 0% and the remaining binding at 10 µM [17] was 0%. It also gave a remaining binding at 10 µM [18] of 0%, a remaining binding at 10 µM [19] of 0% and a remaining binding at 10 µM [20] of 0%. It also gave a remaining binding at 10 µM [21] of 0%, a remaining binding at 10 µM [22] of 0% and a remaining binding at 10 µM [23] of 0%. For the same compound, the IC50 [1] was 660 nM, the remaining binding at 10 µM [24] was 0% and the remaining binding at 10 µM [25] was 0%. For the same compound, the remaining binding at 10 µM [26] was 0%, the remaining binding at 10 µM [27] was 0% and the remaining binding at 10 µM [28] was 0%. For the same compound, the remaining binding at 10 µM [29] was 0%, the remaining binding at 10 µM [30] was 0% and the remaining binding at 10 µM [31] was 0%. It also gave a remaining binding at 10 µM [32] of 0%, a remaining binding at 10 µM [33] of 0% and a remaining binding at 10 µM [34] of 0%. The remaining binding at 10 µM [35] was 0%, the remaining binding at 10 µM [36] was 0% and the remaining binding at 10 µM [37] was 0%. The remaining binding at 10 µM [38] was 0%, the remaining binding at 10 µM [39] was 0% and the remaining binding at 10 µM [40] was 0%. The remaining binding at 10 µM [41] was 0%, the remaining binding at 10 µM [42] was 0% and the remaining binding at 10 µM [43] was 0%. It also gave a remaining binding at 10 µM [44] of 0%, a remaining binding at 10 µM [45] of 0% and a remaining binding at 10 µM [46] of 0%.
For CCN1CCN(C(=O)c2cc(NC(=O)c3ccc(C)c(-c4ccc5nc(NC(=O)C6CC6)sc5n4)c3)cc(C(F)(F)F)c2)CC1 [Compound I-6, 3-(2-(cyclopropanecarboxamido)thiazolo[5,4-b]pyridin-5-yl)-N-(3-(4-ethylpiperazine-1-carbonyl)-5-(trifluoromethyl)phenyl)-4-methylbenzamide], the IC50 [1] was 1450 nM and the “JAK2/STAT5 inhibition (Western blots)” value [2] was “JAK2/STAT5 inhibition”.
In the case of N#CC[C@H](C1CCCC1)n1cc(-c2ncnc3[nH]ccc23)cn1 [Ruxolitinib], the IC50 [47] is given as > 20000 nM.
